In PMC7914897, “Cytotoxic Potential of a-Azepano- and 3-Amino-3,4-SeCo-Triterpenoids” (International Journal of Molecular Sciences, 2021):

What was measured:
[1] = test system: A2780 (ovarian carcinoma); assay: SRB cytotoxicity assay, 72 h; assay type: cell-based, human; details: Homo sapiens; A2780, 72 h, cut-off 30 µM; read-out: EC50
Outline: (§1)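 Absorbance at 570 nm of SRB-stained cells gives % survival vs untreated controls, from which EC50 is determined. Treatment: 0–30 µM serial dilutions, 72 h, beginning 24 h post-seeding; DMSO ≤0.5%. TCA (10%) fixation, acetic acid wash.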

[2] = test system: A375 (malignant melanoma); assay: SRB cytotoxicity assay, 72 h; assay type: cell-based, human; details: Homo sapiens, A-375, 72 h, A375, 72 h, cut-off 30 µM; read-out: EC50
Outline: as §1

[3] = test system: FaDu (hypopharyngeal carcinoma); assay: SRB cytotoxicity assay, 72 h; assay type: cell-based, human; details: Homo sapiens, cut-off 30 µM, read-out: EC50
Outline: as §1

[4] = test system: HT29 (colorectal carcinoma); assay: SRB cytotoxicity assay, 72 h; assay type: cell-based, human; details: Homo sapiens, HT-29; HT29, 72 h, cut-off 30 µM; read-out: EC50
Outline: as §1

[5] = test system: MCF-7 (breast carcinoma); assay: SRB cytotoxicity assay, 72 h; assay type: cell-based, human; details: Homo sapiens, MCF7; MCF-7, 72 h, cut-off 30 µM; read-out: EC50
Outline: as §1

[6] = test system: OVCAR-4 (Ovarian cancer); assay: NCI-60 screen (SRB, 48 h); assay type: cell-based; details: Homo sapiens; for IC (TGI): OVCAR-4, 48 h; for GI50: read-out: GI50
[7] = test system: CNS cancer subpanel; assay: NCI-60 screen, subpanel; details: Homo sapiens; for IC (TGI): 48 h, read-out: TGI MG_MID; for GI50: read-out: GI50 MG_MID; for CC50: read-out: LC50 MG_MID
[8] = test system: Renal Cancer subpanel; assay: NCI-60 screen, subpanel; details: Homo sapiens; for IC (TGI): 48 h, read-out: TGI MG_MID; for GI50: read-out: GI50 MG_MID; for CC50: read-out: LC50 MG_MID
[9] = test system: EKVX (NSC lung cancer); assay: NCI-60 screen (SRB, 48 h); details: Homo sapiens; for IC (TGI): 48 h, read-out: TGI
[10] = test system: NCI-H226 (NSC lung cancer); assay: NCI-60 screen (SRB, 48 h); details: Homo sapiens; for GI50: NCI-H226; for IC (TGI): NCI-H226, 48 h, read-out: TGI
[11] = test system: NCI-H460 (NSC lung cancer); assay: NCI-60 screen (SRB, 48 h); details: Homo sapiens; for GI50: NCI-H460; for IC (TGI): NCI-H460, 48 h, read-out: TGI
[12] = test system: NCI-H522 (NSC lung cancer); assay: NCI-60 screen (SRB, 48 h); details: Homo sapiens; for GI50: NCI-H522; for IC (TGI): NCI-H522, 48 h, read-out: TGI; for CC50: NCI-H522, read-out: LC50
[13] = test system: HCC-2998 (Colon cancer); assay: NCI-60 screen (SRB, 48 h); details: Homo sapiens; for GI50: HCC 2998; for IC (TGI): HCC 2998, 48 h, read-out: TGI
[14] = test system: KM12 (Colon cancer); assay: NCI-60 screen (SRB, 48 h); details: Homo sapiens; for GI50: KM12; for IC (TGI): KM12, 48 h, read-out: TGI
[15] = test system: SW-620 (Colon cancer); assay: NCI-60 screen (SRB, 48 h); details: Homo sapiens; for GI50: SW-620; for IC (TGI): SW-620, 48 h, read-out: TGI
[16] = test system: SF-295 (CNS cancer); assay: NCI-60 screen (SRB, 48 h); details: Homo sapiens; for GI50: SF-295; for IC (TGI): SF-295, 48 h, read-out: TGI
[17] = test system: SNB-19 (CNS cancer); assay: NCI-60 screen (SRB, 48 h); details: Homo sapiens; for GI50: SNB-19; for IC (TGI): SNB-19, 48 h, read-out: TGI
[18] = test system: MALME-3M (Melanoma); assay: NCI-60 screen (SRB, 48 h); details: Homo sapiens; for IC (TGI): 48 h, read-out: TGI
[19] = test system: SK-MEL-5 (Melanoma); assay: NCI-60 screen (SRB, 48 h); details: Homo sapiens; for GI50: SK-MEL-5; for IC (TGI): SK-MEL-5, 48 h, read-out: TGI
[20] = test system: A498 (Renal cancer); assay: NCI-60 screen (SRB, 48 h); details: Homo sapiens; for GI50: A498; for IC (TGI): A498, 48 h, read-out: TGI; for CC50: A498, read-out: LC50
[21] = test system: ACHN (Renal cancer); assay: NCI-60 screen (SRB, 48 h); details: Homo sapiens; for IC (TGI): 48 h, read-out: TGI; for CC50: read-out: LC50
[22] = test system: TK-10 (Renal cancer); assay: NCI-60 screen (SRB, 48 h); details: Homo sapiens; for GI50: TK-10; for IC (TGI): TK-10, 48 h, read-out: TGI; for CC50: TK-10, read-out: LC50
[23] = test system: MCF7 (Breast cancer); assay: NCI-60 screen (SRB, 48 h); details: Homo sapiens; for GI50: MCF7; for IC (TGI): MCF7, 48 h, read-out: TGI
[24] = test system: T-47D (Breast cancer); assay: NCI-60 screen (SRB, 48 h); details: Homo sapiens, T47D; for IC (TGI): 48 h, read-out: TGI

Cc1ccc(S(=O)(=O)OC[C@]23CCC(C)(C)C[C@H]2C2=CC[C@@H]4[C@@]5(C)CCCNC(C)(C)[C@@H]5CC[C@@]4(C)[C@]2(C)CC3)cc1 [Compound 15]
EC50 [1]: 1.48 ± 0.2 µM
EC50 [2]: 2.36 ± 0.1 µM
EC50 [3]: 2.02 ± 0.2 µM
EC50 [4]: 2.33 ± 0.2 µM
EC50 [5]: 2.4 ± 0.1 µM
IC (TGI) [6]: 3.32 µM
GI50 ([6]; OVCAR-4): 1.69 µM
IC (TGI) [7]: 4.11 µM
GI50 [7]: 1.78 µM
CC50 [7]: 26.5 µM
IC (TGI) [8]: 5.44 µM
GI50 [8]: 2.13 µM
CC50 [8]: 14.3 µM
GI50 [9]: 1.48 µM
IC (TGI) [9]: 2.96 µM
GI50 [10]: 1.71 µM
IC (TGI) [10]: 3.77 µM
GI50 [11]: 1.77 µM
IC (TGI) [11]: 3.37 µM
GI50 [12]: 1.69 µM
IC (TGI) [12]: 3.38 µM
CC50 [12]: 6.78 µM
GI50 [13]: 1.63 µM
IC (TGI) [13]: 3.21 µM
GI50 [14]: 1.82 µM
IC (TGI) [14]: 3.33 µM
GI50 [15]: 1.73 µM
IC (TGI) [15]: 3.36 µM
GI50 [16]: 1.71 µM
IC (TGI) [16]: 3.3 µM
GI50 [17]: 1.72 µM
IC (TGI) [17]: 3.54 µM
GI50 [18]: 1.77 µM
IC (TGI) [18]: 3.56 µM
GI50 [19]: 1.9 µM
IC (TGI) [19]: 3.68 µM
GI50 [20]: 5.99 µM
IC (TGI) [20]: 21.4 µM
CC50 [20]: 57.6 µM
GI50 [21]: 1.68 µM
IC (TGI) [21]: 3.07 µM
CC50 [21]: 5.58 µM
GI50 [22]: 1.77 µM
IC (TGI) [22]: 3.33 µM
CC50 [22]: 6.27 µM
GI50 [23]: 1.62 µM
IC (TGI) [23]: 3.38 µM
GI50 [24]: 1.67 µM
IC (TGI) [24]: 3.31 µM

Cc1ccc(S(=O)(=O)OC[C@@]2(C)CC[C@]3(C)CC[C@]4(C)C(=C3C2)C=C[C@@H]2[C@@]3(C)CCCNC(C)(C)[C@@H]3CC[C@]24C)cc1 [Compound 16]
EC50 [1]: 2.38 ± 0.1 µM
EC50 [2]: 1.91 ± 0.1 µM
EC50 [3]: 1.52 ± 0.1 µM
EC50 [4]: 1.54 ± 0.1 µM
EC50 [5]: 1.54 ± 0.1 µM
IC (TGI) [6]: 3.16 µM
GI50 ([6]; OVCAR-4): 1.66 µM
CC50 ([6]; OVCAR-4, read-out: LC50 (the source's name)): 6.02 µM
IC (TGI) [7]: 3.4 µM
GI50 [7]: 1.77 µM
CC50 [7]: 6.49 µM
IC (TGI) [8]: 3.19 µM
GI50 [8]: 1.67 µM
CC50 [8]: 5.92 µM
GI50 [9]: 1.7 µM
IC (TGI) [9]: 3.29 µM
CC50 ([9]; read-out: LC50): 6.35 µM
GI50 [10]: 1.66 µM
IC (TGI) [10]: 3.47 µM
GI50 [11]: 1.85 µM
IC (TGI) [11]: 3.5 µM
GI50 [12]: 1.7 µM
IC (TGI) [12]: 3.36 µM
CC50 [12]: 6.64 µM
GI50 [13]: 1.58 µM
IC (TGI) [13]: 3.18 µM
GI50 [14]: 1.86 µM
IC (TGI) [14]: 3.57 µM
CC50 ([14]; KM12, read-out: LC50): 6.85 µM
GI50 [15]: 1.78 µM
IC (TGI) [15]: 3.54 µM
CC50 ([15]; SW-620, read-out: LC50): 7.04 µM
GI50 [16]: 1.78 µM
IC (TGI) [16]: 3.29 µM
CC50 ([16]; SF-295, read-out: LC50): 6.08 µM
GI50 [17]: 1.91 µM
IC (TGI) [17]: 3.62 µM
GI50 [18]: 1.68 µM
IC (TGI) [18]: 3.26 µM
CC50 ([18]; read-out: LC50): 6.34 µM
GI50 [19]: 1.82 µM
IC (TGI) [19]: 3.39 µM
GI50 [20]: 1.71 µM
IC (TGI) [20]: 3.13 µM
CC50 [20]: 5.74 µM
GI50 [21]: 1.72 µM
IC (TGI) [21]: 3.1 µM
CC50 [21]: 5.5 µM
GI50 [22]: 1.88 µM
IC (TGI) [22]: 3.59 µM
CC50 [22]: 6.85 µM
GI50 [23]: 1.51 µM
IC (TGI) [23]: 3.18 µM
GI50 [24]: 1.55 µM
IC (TGI) [24]: 3.26 µM
CC50 ([24]; read-out: LC50): 6.85 µM
